Reference: patent publication US4424358A, “β-3-Amino nor-tropane compounds” (Delalande S.A., priority 1979, dated 1984)
Read-outs that look alike come from different tables or passages of the source.

Legend:
[1] = tested on: apomorphine straightening; assay: antagonism to apomorphine straightening (neuroleptic activity); assay type: in vivo, mice; conditions: Mus musculus, ip, read-out: Apomorphine straightening ED 50
[2] = acute toxicity by intraperitoneal administration; conditions: mouse, in vivo, ip; mice, i.p., estimated lethal dose (method of Miller); read-out: Acute toxicity LD 50
Description: Acute toxicity was studied on mice by intraperitoneal administration, and the estimated lethal doses in accordance with the method described by MILLER and THINTER Proc. Soc. Exper.

| SMILES | ED50 [1] | LD50 [2] | ED50 ([1]; mice, i.p.) |
| --- | --- | --- | --- |
| CCOc1nc(N)ncc1C(=O)N[C@@H]1C[C@H]2CC[C@@H](C1)N2Cc1ccccc1 [Compound 3] | 0.04 mg/kg | 300 mg/kg |  |
| COc1nc(N)ncc1C(=O)N[C@@H]1C[C@H]2CC[C@@H](C1)N2Cc1ccc(Cl)cc1 [Compound 8, β-3-[5-(2-amino 4-methoxypyrimidinyl)carbonyl]amino N-parachlorobenzyl nor-tropane] | 0.035 mg/kg | 220 mg/kg |  |
| COc1ccc(CN2[C@@H]3CC[C@H]2C[C@H](NC(=O)c2cnc(N)nc2OC)C3)cc1 [Compound 9] | 0.01 mg/kg | 240 mg/kg |  |
| COc1nc(N)ncc1C(=O)N[C@@H]1C[C@H]2CC[C@@H](C1)N2Cc1ccc(C)cc1 [Compound 10] | 0.035 mg/kg | 325 mg/kg |  |
| COc1cc(N)c(Br)cc1C(=O)N[C@@H]1C[C@H]2CC[C@@H](C1)N2Cc1ccccc1 [Compound 16] | 0.01 mg/kg | 240 mg/kg |  |
| COc1cc(N)c(Br)cc1C(=O)N[C@@H]1C[C@H]2CC[C@@H](C1)N2Cc1ccc(F)cc1 [Compound 19, β-3-[(4-amino 5-bromo 2-methoxy)benzoyl]amino N-parafluorobenzyl nor-tropane, chlorhydrate] | 0.01 mg/kg | 90 mg/kg |  |
| COc1cc(N)c(Br)cc1C(=O)N[C@@H]1C[C@H]2CC[C@@H](C1)N2Cc1ccc(Br)cc1 [Compound 20] | 0.034 mg/kg | > 400 mg/kg |  |
| COc1cc(N)c(Br)cc1C(=O)N[C@@H]1C[C@H]2CC[C@@H](C1)N2Cc1cccc(C(F)(F)F)c1 [Compound 21] | 0.07 mg/kg | 85 mg/kg |  |
| COc1cc(N)c(Br)cc1C(=O)N[C@@H]1C[C@H]2CC[C@@H](C1)N2Cc1ccc(Cl)cc1 [Compound 22] | 0.021 mg/kg | 140 mg/kg |  |
| COc1cc(N)c(Br)cc1C(=O)N[C@@H]1C[C@H]2CC[C@@H](C1)N2Cc1ccc(C)cc1 [Compound 23] | 0.07 mg/kg | > 400 mg/kg |  |
| COc1cc(N)c(Br)cc1C(=O)N[C@@H]1C[C@H]2CC[C@@H](C1)N2Cc1cccc(C)c1 [Compound 24] | 0.05 mg/kg | 160 mg/kg |  |
| COc1cc(N)c(Br)cc1C(=O)N[C@@H]1C[C@H]2CC[C@@H](C1)N2Cc1cccc(Cl)c1 [Compound 25] | 0.03 mg/kg | 100 mg/kg |  |
| COc1cc(N)c(Br)cc1C(=O)N[C@@H]1C[C@H]2CC[C@@H](C1)N2Cc1cccc(F)c1 [Compound 26] | 0.011 mg/kg | 140 mg/kg |  |
| COc1cc(N)c(Br)cc1C(=O)N[C@@H]1C[C@H]2CC[C@@H](C1)N2Cc1cccc(Br)c1 [Compound 27] | 0.034 mg/kg | > 400 mg/kg |  |
| COc1cc(N)c(Br)cc1C(=O)N[C@@H]1C[C@H]2CC[C@@H](C1)N2Cc1ccc(Cl)c(Cl)c1 [Compound 28] | 0.12 mg/kg | > 400 mg/kg |  |
| COc1cc(N)c(Br)cc1C(=O)N[C@@H]1C[C@H]2CC[C@@H](C1)N2Cc1cccs1 [Compound 29] | 0.012 mg/kg | 180 mg/kg |  |
| CCc1ccc(CN2[C@@H]3CC[C@H]2C[C@H](NC(=O)c2cc(Br)c(N)cc2OC)C3)cc1 [Compound 30] | 0.3 mg/kg | 230 mg/kg |  |
| COc1cc(N)c(Br)cc1C(=O)N[C@@H]1C[C@H]2CC[C@@H](C1)N2Cc1ccsc1 [Compound 32] | 0.05 mg/kg | 140 mg/kg |  |
| COc1cc(N)c(Br)cc1C(=O)N[C@@H]1C[C@H]2CC[C@@H](C1)N2Cc1ccc(C(F)(F)F)cc1 [Compound 33] | 0.19 mg/kg | > 400 mg/kg |  |
| COc1cc(N)c(Br)cc1C(=O)N[C@@H]1C[C@H]2CC[C@@H](C1)N2CC1CCCCC1 [Compound 35] | 0.07 mg/kg | 80 mg/kg |  |
| COc1nc(N)ncc1C(=O)N[C@@H]1C[C@H]2CC[C@@H](C1)N2Cc1ccc(Br)cc1 [Compound 37] | 0.16 mg/kg | 170 mg/kg |  |

| SMILES | ED50 [1] | LD50 [2] | ED50 ([1]; mice, i.p.) |
| --- | --- | --- | --- |
| COc1cc(NC(C)=O)c(Br)cc1C(=O)N[C@@H]1C[C@H]2CC[C@@H](C1)N2Cc1ccccc1 [Compound 40] | 0.05 mg/kg | 130 mg/kg |  |
| COc1cc(NC(=O)C(F)(F)F)c(Br)cc1C(=O)N[C@@H]1C[C@H]2CC[C@@H](C1)N2Cc1ccccc1 [Compound 41] | 0.03 mg/kg | 225 mg/kg |  |
| COc1cc(NC(C)=O)c(Cl)cc1C(=O)N[C@@H]1C[C@H]2CC[C@@H](C1)N2Cc1ccccc1 [Compound 42] | 0.05 mg/kg | 61 mg/kg |  |
| COc1cc(NC(=O)C(F)(F)F)c(Cl)cc1C(=O)N[C@@H]1C[C@H]2CC[C@@H](C1)N2Cc1ccccc1 [Compound 43] | 0.03 mg/kg | 120 mg/kg |  |
| COc1ccc([N+](=O)[O-])cc1C(=O)N[C@@H]1C[C@H]2CC[C@@H](C1)N2Cc1ccccc1 [Compound 48] | 0.21 mg/kg | 310 mg/kg |  |
| COc1ccc(F)cc1C(=O)N[C@@H]1C[C@H]2CC[C@@H](C1)N2Cc1ccccc1 [Compound 49] | 0.08 mg/kg | 120 mg/kg |  |
| COc1ccc(O)cc1C(=O)N[C@@H]1C[C@H]2CC[C@@H](C1)N2Cc1ccccc1 [Compound 51] | 0.03 mg/kg | 140 mg/kg |  |
| COc1cc(OC)c(C(=O)N[C@@H]2C[C@H]3CC[C@@H](C2)N3Cc2ccccc2)cc1OC [Compound 60] | 0.027 mg/kg | 75 mg/kg |  |
| COc1ccc(C(=O)N[C@@H]2C[C@H]3CC[C@@H](C2)N3Cc2ccccc2)c(OC)c1OC [Compound 61] | 0.02 mg/kg | 80 mg/kg |  |
| COc1ccccc1C(=O)N[C@@H]1C[C@H]2CC[C@@H](C1)N2Cc1ccccc1 [Compound 62] | 0.04 mg/kg | 60 mg/kg |  |
| COc1cccc(C(=O)N[C@@H]2C[C@H]3CC[C@@H](C2)N3Cc2ccccc2)c1OC [Compound 64] | 0.008 mg/kg | 83 mg/kg |  |
| COc1cc(N)ccc1C(=O)N[C@@H]1C[C@H]2CC[C@@H](C1)N2Cc1ccccc1 [Compound 67] | 0.038 mg/kg | 100 mg/kg |  |
| COc1ccc(C(=O)N[C@@H]2C[C@H]3CC[C@@H](C2)N3Cc2ccccc2)c(OC)c1 [Compound 68] | 0.02 mg/kg | 47 mg/kg |  |
| COc1cc(N)c(Cl)cc1C(=O)N[C@@H]1C[C@H]2CC[C@@H](C1)N2Cc1ccco1 [Compound 71] | 0.11 mg/kg | 120 mg/kg |  |
| COc1cc(N)c(Cl)cc1C(=O)N[C@@H]1C[C@H]2CC[C@@H](C1)N2Cc1ccsc1 [Compound 72] | 0.04 mg/kg | 110 mg/kg |  |
| COc1cc(N)c(Cl)cc1C(=O)N[C@@H]1C[C@H]2CC[C@@H](C1)N2Cc1cccs1 [Compound 73] | 0.02 mg/kg | 170 mg/kg |  |
| COc1c(C(=O)N[C@@H]2C[C@H]3CC[C@@H](C2)N3Cc2ccccc2)cc(Br)c(N)c1Br [Compound 74] | 0.035 mg/kg | 250 mg/kg |  |
| CCOc1cc(N)c(Br)cc1C(=O)N[C@@H]1C[C@H]2CC[C@@H](C1)N2Cc1ccccc1 [Compound 75] | 0.021 mg/kg | > 400 mg/kg |  |
| COc1cc(OC)cc(C(=O)N[C@@H]2C[C@H]3CC[C@@H](C2)N3Cc2ccccc2)c1 [Compound 83] | 0.031 mg/kg | 140 mg/kg |  |
| CCN1CCCC1CNC(=O)c1cc(S(N)(=O)=O)ccc1OC (stereo not drawn) [SULPIRIDE, reference compound] |  |  | 37 mg/kg |
